Reference: ChEMBL document CHEMBL1123676, “Synthetic and enzyme inhibition studies of pepstatin analogues containing hydroxyethylene and ketomethylene dipeptide isosteres” (J Med Chem, 1987)
pKi: −log10 of the molar value. Non-standard residues stand in square brackets, D forms with d. Residues, ends and D or L forms follow the SMILES beside them. ξ: configuration not given here. *: point of attachment. Cbz = O=C(OCc1ccccc1)*; ξL = CC(C)CC(N)C(=O)O; ξA = CC(N)C(=O)O

Columns and labels:
Pepsin A [1] = target: T1, Pepsin A (Sus scrofa, UniProt P00791); test: Inhibition of porcine pepsin
Pepsin A (Sus scrofa) [2] = target: Pepsin A (Sus scrofa) (UniProt P00791); test: Slow binding inhibition characteristic of the pepstatin-pepsin interaction; - indicates that the binding is not slow.
Pepsin A (Sus scrofa) [3] = target: Pepsin A (Sus scrofa) (UniProt P00791)
Pepsin A (Sus scrofa) [4] = target: Pepsin A (Sus scrofa) (UniProt P00791); remark: listed apart in the source
Pepsin A [5] = target: T1, Pepsin A; test: Inhibitory activity against porcine pepsin was determined
Pepsin A (Sus scrofa) [6] = target: Pepsin A (Sus scrofa) (UniProt P00791); test: The kinetic constant (Kcat)of porcine pepsin substrate Z-His-Phe-Leu-oMe was determined
[7] = Ratio of kinetic constant kcat / KM of porcine pepsin
Pepsin A [8] = target: T1, Pepsin A; test: Inhibitory activity against porcine pepsin substrate Z-His-Phe-DPhe-oMe was determined
Pepsin A (Sus scrofa) [9] = target: Pepsin A (Sus scrofa) (UniProt P00791); test: The kinetic constant (Kcat)of porcine pepsin substrate Z-His-Phe-Ala-oMe was determined
Pepsin A (Sus scrofa) [10] = target: Pepsin A (Sus scrofa) (UniProt P00791); test: The kinetic constant (Kcat)of porcine pepsin substrate Z-His-Phe-Phe-oMe was determined
Pepsin A (Sus scrofa) [11] = target: Pepsin A (Sus scrofa) (UniProt P00791); test: The kinetic constant (Kcat)of porcine pepsin substrate Z-His-Phe-Gly-oMe was determined
Pepsin A (Sus scrofa) [12] = target: Pepsin A (Sus scrofa) (UniProt P00791); test: Slow binding inhibition characteristic of the pepstatin-pepsin interaction; indicates that the binding is not slow.

T1 sequence (P00791 whole entry): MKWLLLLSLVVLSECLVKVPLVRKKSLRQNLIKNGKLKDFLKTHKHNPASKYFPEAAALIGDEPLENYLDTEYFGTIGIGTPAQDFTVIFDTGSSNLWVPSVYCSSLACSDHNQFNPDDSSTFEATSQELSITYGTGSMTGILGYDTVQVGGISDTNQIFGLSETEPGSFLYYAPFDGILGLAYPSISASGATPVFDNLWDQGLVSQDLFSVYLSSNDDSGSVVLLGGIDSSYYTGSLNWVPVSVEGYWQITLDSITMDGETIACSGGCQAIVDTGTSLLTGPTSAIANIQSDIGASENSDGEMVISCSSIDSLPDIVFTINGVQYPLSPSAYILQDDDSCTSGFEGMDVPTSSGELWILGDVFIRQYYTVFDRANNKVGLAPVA
Pepsin A (Sus scrofa), sequence (P00791 60-385 limits assumed): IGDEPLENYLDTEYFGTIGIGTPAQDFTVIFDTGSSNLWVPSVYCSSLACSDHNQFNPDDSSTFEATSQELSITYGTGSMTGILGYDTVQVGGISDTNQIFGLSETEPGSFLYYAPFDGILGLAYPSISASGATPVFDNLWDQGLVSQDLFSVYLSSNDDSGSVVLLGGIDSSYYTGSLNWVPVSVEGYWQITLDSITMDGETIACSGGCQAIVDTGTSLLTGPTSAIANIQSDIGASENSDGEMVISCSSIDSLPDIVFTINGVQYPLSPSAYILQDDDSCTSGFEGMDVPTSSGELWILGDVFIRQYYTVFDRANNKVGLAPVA

Row | Structure (SMILES) | pKi (Pepsin A [1]) | Slow binding (Pepsin A (Sus scrofa) [2]) | other results
1 | CC(C)CCNC(=O)CNC(=O)C[C@H](O)C(CC(C)C)NC(=O)C(NC(=O)CC(C)C)C(C)C (stereo not given in full) | 7.25 | binding is not slow | 
2 | CC(C)CCNC(=O)C(C)NC(=O)CC[C@H](O)[C@H](CC(C)C)NC(=O)C(NC(=O)CC(C)C)C(C)C (stereo not given in full) | 7.30 |  | Slow binding (Pepsin A (Sus scrofa) [3]): binding is not slow
3 | CC(C)CCNC(=O)C(C)NC(=O)C(Cc1ccccc1)C[C@H](O)[C@H](CC(C)C)NC(=O)C(NC(=O)CC(C)C)C(C)C (stereo not given in full) | 8.60 |  | 
4 | CC(C)CCNC(=O)C(C)C[C@H](O)[C@H](CC(C)C)NC(=O)C(NC(=O)CC(C)C)C(C)C (stereo not given in full) | 7.57 |  | Slow binding (Pepsin A (Sus scrofa) [4]): binding is not slow
5 | CC(C)CCNC(=O)C(C)NC(=O)CC(=O)C(CC(C)C)NC(=O)C(NC(=O)CC(C)C)C(C)C (stereo not given) | 7.25 | binding is not slow | 
6 | CC(C)CCNC(=O)C(C)NC(=O)C[C@H](O)C(CC(C)C)NC(=O)C(NC(=O)CC(C)C)C(C)C (stereo not given in full) |  |  | pKi (Pepsin A [5]): 8.52
7 | COC(=O)C(CC(C)C)NC(=O)[C@H](Cc1ccccc1)NC(=O)[C@H](Cc1c[nH]cn1)NC(=O)OCc1ccccc1 (stereo partly drawn) (Cbz-His-Phe-[ξL]-OMe) |  |  | k cat (Pepsin A (Sus scrofa) [6]): 5.2 ms-1; Ratio [7]: 10
8 | CC(C)CCNC(=O)C(C)NC(=O)C(CC(=O)[C@H](CC(C)C)NC(=O)C(NC(=O)CC(C)C)C(C)C)Cc1ccccc1 (stereo not given in full) | 7.14 | binding is not slow | 
9 | COC(=O)[C@@H](Cc1ccccc1)NC(=O)[C@H](Cc1ccccc1)NC(=O)[C@H](Cc1c[nH]cn1)NC(=O)OCc1ccccc1 |  |  | pKi (Pepsin A [8]): 3.55
10 | COC(=O)C(C)NC(=O)[C@H](Cc1ccccc1)NC(=O)[C@H](Cc1c[nH]cn1)NC(=O)OCc1ccccc1 (stereo partly drawn) (Cbz-His-Phe-[ξA]-OMe) |  |  | k cat (Pepsin A (Sus scrofa) [9]): 3.7 ms-1; Ratio [7]: 2.1
11 | COC(=O)C(Cc1ccccc1)NC(=O)[C@H](Cc1ccccc1)NC(=O)[C@H](Cc1c[nH]cn1)NC(=O)OCc1ccccc1 (stereo not given in full) |  |  | k cat (Pepsin A (Sus scrofa) [10]): 170 ms-1; Ratio [7]: 520
12 | COC(=O)CNC(=O)[C@H](Cc1ccccc1)NC(=O)[C@H](Cc1c[nH]cn1)NC(=O)OCc1ccccc1 (Cbz-His-Phe-Gly-OMe) |  |  | k cat (Pepsin A (Sus scrofa) [11]): 2.1 ms-1; Ratio [7]: 1.3

The next lines start with results.

Row | pKi (Pepsin A [1]) | Slow binding (Pepsin A (Sus scrofa) [2]) | Structure (SMILES) | other results
13 | 5.67 | binding is not slow | CC(C)CCNC(=O)C(C)NC(=O)CCC(=O)[C@H](CC(C)C)NC(=O)C(NC(=O)CC(C)C)C(C)C (stereo not given in full) | 
14 | 8.52 |  | CC(C)CCNC(=O)C(C)NC(=O)C(C)C[C@H](O)[C@H](CC(C)C)NC(=O)C(NC(=O)CC(C)C)C(C)C (stereo not given in full) | 
15 | 7.57 | binding is not slow | CC(C)CCNC(=O)C(C)NC(=O)C(C)CC(=O)[C@H](CC(C)C)NC(=O)C(NC(=O)CC(C)C)C(C)C (stereo not given in full) | 
16 | 6.07 | binding is not slow | CC(C)CCNC(=O)C(C)NC(=O)[C@@H](CC(=O)[C@H](CC(C)C)NC(=O)C(NC(=O)CC(C)C)C(C)C)Cc1ccccc1 (stereo not given in full) | 
17 | 6.85 |  | CC(C)CCNC(=O)C(C)NC(=O)[C@H](Cc1ccccc1)C[C@H](O)[C@H](CC(C)C)NC(=O)C(NC(=O)CC(C)C)C(C)C (stereo not given in full) | Slow binding (Pepsin A (Sus scrofa) [12]): indicates that the binding is not slow
